From ChEMBL document CHEMBL2040718, “Synthesis of friedelan triterpenoid analogs with DNA topoisomerase IIα inhibitory activity and their molecular docking studies” (Eur J Med Chem, 2012)
Active and inactive are the calls of the source.

How the values were obtained:
[1] = target: DNA topoisomerase 2-alpha (Homo sapiens) (UniProt P11388); assay: Inhibition of human topoisomerase 2alpha-mediated relaxation of supercoiled pBR322 plasmid DNA after 15 mins using ethidium bromide staining by agarose-gel electrophoresis
[2] = target: DNA topoisomerase 2-alpha (Homo sapiens) (UniProt P11388); assay: Complete inhibition of human topoisomerase 2alpha-mediated relaxation of supercoiled pBR322 plasmid DNA at 100 uM after 15 mins using ethidium bromide staining by agarose-gel electrophoresis
[3] = target: DNA topoisomerase 2-alpha (Homo sapiens) (UniProt P11388); assay: Complete inhibition of human topoisomerase 2alpha-mediated relaxation of supercoiled pBR322 plasmid DNA at 50 uM after 15 mins using ethidium bromide staining by agarose-gel electrophoresis
[4] = target: DNA topoisomerase 2-alpha (Homo sapiens) (UniProt P11388); assay: Partial inhibition of human topoisomerase 2alpha-mediated relaxation of supercoiled pBR322 plasmid DNA at 25 uM after 15 mins using ethidium bromide staining by agarose-gel electrophoresis

Measured: inhibition

DNA topoisomerase 2-alpha (Homo sapiens), sequence (P11388 whole entry): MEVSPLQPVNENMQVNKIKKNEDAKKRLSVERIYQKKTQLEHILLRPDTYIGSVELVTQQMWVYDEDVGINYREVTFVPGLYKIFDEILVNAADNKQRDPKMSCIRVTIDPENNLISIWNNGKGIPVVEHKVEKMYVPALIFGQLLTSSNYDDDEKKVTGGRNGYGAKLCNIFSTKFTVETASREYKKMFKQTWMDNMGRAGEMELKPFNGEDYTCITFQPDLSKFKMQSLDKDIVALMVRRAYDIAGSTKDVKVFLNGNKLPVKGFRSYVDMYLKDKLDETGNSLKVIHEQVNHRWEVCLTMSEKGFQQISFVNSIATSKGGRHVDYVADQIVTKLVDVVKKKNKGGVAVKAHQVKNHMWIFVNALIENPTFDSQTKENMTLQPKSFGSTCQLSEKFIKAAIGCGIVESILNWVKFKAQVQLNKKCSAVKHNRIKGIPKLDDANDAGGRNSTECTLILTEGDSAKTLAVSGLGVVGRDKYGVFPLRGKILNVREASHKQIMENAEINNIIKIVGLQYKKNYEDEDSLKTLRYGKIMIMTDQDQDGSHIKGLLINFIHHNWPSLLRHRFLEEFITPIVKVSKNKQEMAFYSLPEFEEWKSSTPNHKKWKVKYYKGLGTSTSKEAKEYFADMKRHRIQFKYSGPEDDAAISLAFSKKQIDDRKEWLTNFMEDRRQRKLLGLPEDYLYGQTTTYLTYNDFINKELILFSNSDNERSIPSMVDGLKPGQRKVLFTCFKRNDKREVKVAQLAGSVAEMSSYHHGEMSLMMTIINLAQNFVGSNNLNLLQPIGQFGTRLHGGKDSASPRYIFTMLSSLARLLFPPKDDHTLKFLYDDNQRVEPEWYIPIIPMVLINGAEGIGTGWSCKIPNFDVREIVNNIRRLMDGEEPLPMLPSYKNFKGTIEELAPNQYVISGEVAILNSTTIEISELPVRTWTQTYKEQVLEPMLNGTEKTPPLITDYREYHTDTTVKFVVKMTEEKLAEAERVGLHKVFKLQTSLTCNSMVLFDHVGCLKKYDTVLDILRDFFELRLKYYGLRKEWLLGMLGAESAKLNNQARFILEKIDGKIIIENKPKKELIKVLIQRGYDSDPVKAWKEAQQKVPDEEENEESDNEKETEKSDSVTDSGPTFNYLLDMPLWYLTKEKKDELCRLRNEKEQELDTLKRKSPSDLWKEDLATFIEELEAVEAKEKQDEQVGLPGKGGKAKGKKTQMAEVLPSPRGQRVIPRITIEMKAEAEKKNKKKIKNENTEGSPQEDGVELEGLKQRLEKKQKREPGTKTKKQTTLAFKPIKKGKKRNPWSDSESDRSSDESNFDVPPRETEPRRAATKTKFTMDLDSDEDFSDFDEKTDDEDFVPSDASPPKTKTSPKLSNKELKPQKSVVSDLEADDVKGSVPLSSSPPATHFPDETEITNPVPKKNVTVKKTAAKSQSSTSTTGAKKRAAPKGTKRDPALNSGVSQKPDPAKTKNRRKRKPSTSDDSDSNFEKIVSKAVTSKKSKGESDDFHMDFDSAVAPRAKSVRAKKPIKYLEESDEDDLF

C[C@@H](C(=O)O)[C@@]1(C)CC[C@H]2[C@@](C)(CC[C@@]3(C)[C@@H]4CC(C)(C)CC[C@]4(C)CC[C@]23C)[C@@H]1CC(=O)O
active: [1] Dose-dependent effect | [2] | [3] | [4]

CC(=O)[C@@]1(C)CC[C@H]2[C@@](C)(CC[C@@]3(C)[C@@H]4CC(C)(C)CC[C@]4(C)CC[C@]23C)[C@@H]1CC(=O)O
active: [1] Dose-dependent effect | [2] | [3] | [4]
